Measured values reported in PubChem BioAssay (NCI).
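Compound exposure: 48 hours, 5 concentrations, 96-well plates. The concentration for 50% growth inhibition is given as GI50. TGI: concentration producing complete growth inhibition.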

Legend:
Experiment in all cases: growth of human tumour cells (NCI), 48 h
[1] = tested on: DU-145 prostate
[2] = tested on: SW-620 colon
[3] = tested on: HCT-116 colon
[4] = tested on: NCI-H522 lung
[5] = tested on: SF-539 CNS
[6] = tested on: A549 NSCLC
[7] = tested on: LOX IMVI melanoma
[8] = tested on: EKVX NSCLC
[9] = tested on: NCI-H23 lung
[10] = tested on: RXF 393 renal
[11] = tested on: UO-31 renal
[12] = tested on: COLO 205 colon
[13] = tested on: MALME-3M melanoma
[14] = tested on: U251 CNS
[15] = tested on: IGROV1 ovarian
[16] = tested on: HCT-15 colon
[17] = tested on: HCC-2998 colon
[18] = tested on: MOLT-4 leukemia
[19] = tested on: TK-10 renal
[20] = tested on: SK-OV-3 ovarian
[21] = tested on: OVCAR-4 ovarian
[22] = tested on: BT-549 breast
[23] = tested on: CCRF-CEM leukemia
[24] = tested on: HL-60(TB) leukemia
[25] = tested on: OVCAR-5 ovarian
[26] = tested on: 786-0 renal
[27] = tested on: SR leukemia
[28] = tested on: UACC-62 melanoma
[29] = tested on: SF-268 CNS
[30] = tested on: PC-3 prostate
[31] = tested on: SK-MEL-5 melanoma
[32] = tested on: NCI/ADR-RES ovarian
[33] = tested on: MDA-MB-435
[34] = tested on: OVCAR-3 ovarian
[35] = tested on: HS 578T breast
[36] = tested on: SN12C renal
[37] = tested on: K-562 leukemia
[38] = tested on: SF-295 CNS
[39] = tested on: UACC-257 melanoma
[40] = tested on: SK-MEL-2 melanoma
[41] = tested on: MDA-MB-231 breast
[42] = tested on: A498 renal
[43] = tested on: M14 melanoma
[44] = tested on: ACHN renal
[45] = tested on: SNB-19 CNS
[46] = tested on: HOP-92 NSCLC
[47] = tested on: HT29 colon
[48] = tested on: T-47D breast
[49] = tested on: CAKI-1 renal
[50] = tested on: SNB-75 CNS
[51] = tested on: RPMI-8226 leukemia
[52] = tested on: KM12 colon
[53] = tested on: NCI-H226 lung
[54] = tested on: MCF7 breast
[55] = tested on: NCI-H460 lung
[56] = tested on: OVCAR-8 ovarian
[57] = tested on: HOP-62 NSCLC
[58] = tested on: SK-MEL-28 melanoma

**Q.** With `Cc1ccc2c(n1)C(=O)C(Cl)=C(Nc1ccc(C(F)(F)F)cc1)C2=O` as the compound, how does the GI50 [1] read?
**A.** 1.87 µM

**Q.** And the TGI [1]?
**A.** 3.41 µM

**Q.** And the GI50 [2]?
**A.** 1.13 µM

**Q.** What about the TGI [2] of the same compound?
**A.** 3.73 µM

**Q.** And the GI50 [3]?
**A.** 0.569 µM

**Q.** And the TGI [3]?
**A.** 2.02 µM

**Q.** And the GI50 [4]?
**A.** 2 µM

**Q.** And the TGI [4]?
**A.** 4.93 µM

**Q.** What about the GI50 [5] of the same compound?
**A.** 1.92 µM

**Q.** What about the TGI [5] of the same compound?
**A.** 3.95 µM

**Q.** What about the GI50 [6] of the same compound?
**A.** > 100 µM

**Q.** What about the TGI [6] of the same compound?
**A.** > 100 µM

**Q.** And the GI50 [7]?
**A.** 1.22 µM

**Q.** What about the TGI [7] of the same compound?
**A.** 3.04 µM

**Q.** What about the GI50 [8] of the same compound?
**A.** 1.68 µM

**Q.** And the TGI [8]?
**A.** 3.98 µM

**Q.** What about the GI50 [9] of the same compound?
**A.** 2.02 µM

**Q.** What about the TGI [9] of the same compound?
**A.** 5.58 µM

**Q.** What about the GI50 [10] of the same compound?
**A.** 1.57 µM

**Q.** What about the TGI [10] of the same compound?
**A.** 2.95 µM

**Q.** And the GI50 [11]?
**A.** 1.37 µM

**Q.** And the TGI [11]?
**A.** 2.75 µM

**Q.** And the GI50 [12]?
**A.** 2.21 µM

**Q.** What about the TGI [12] of the same compound?
**A.** 4.83 µM

**Q.** What about the GI50 [13] of the same compound?
**A.** 1.9 µM

**Q.** And the TGI [13]?
**A.** 3.78 µM

**Q.** What about the GI50 [14] of the same compound?
**A.** 4.93 µM

**Q.** What about the TGI [14] of the same compound?
**A.** 20.5 µM

**Q.** What about the GI50 [15] of the same compound?
**A.** 1.82 µM

**Q.** What about the TGI [15] of the same compound?
**A.** 4.04 µM

**Q.** What about the GI50 [16] of the same compound?
**A.** 1.36 µM

**Q.** And the TGI [16]?
**A.** 3.13 µM

**Q.** What about the GI50 [17] of the same compound?
**A.** 3.14 µM

**Q.** And the TGI [17]?
**A.** 9.98 µM

**Q.** What about the GI50 [18] of the same compound?
**A.** 0.347 µM

**Q.** What about the TGI [18] of the same compound?
**A.** 2.99 µM

**Q.** And the GI50 [19]?
**A.** 2.28 µM

**Q.** What about the TGI [19] of the same compound?
**A.** 3.75 µM

**Q.** What about the GI50 [20] of the same compound?
**A.** > 100 µM

**Q.** And the TGI [20]?
**A.** > 100 µM

**Q.** And the GI50 [21]?
**A.** 1.69 µM

**Q.** What about the TGI [21] of the same compound?
**A.** 4.31 µM

**Q.** What about the GI50 [22] of the same compound?
**A.** 1.78 µM

**Q.** What about the TGI [22] of the same compound?
**A.** 3.33 µM

**Q.** And the GI50 [23]?
**A.** 0.879 µM

**Q.** And the TGI [23]?
**A.** 3.89 µM

**Q.** And the GI50 [24]?
**A.** 1.4 µM

**Q.** And the TGI [24]?
**A.** 3.76 µM

**Q.** What about the GI50 [25] of the same compound?
**A.** 5.07 µM

**Q.** And the TGI [25]?
**A.** 19.8 µM

**Q.** What about the GI50 [26] of the same compound?
**A.** 1.84 µM

**Q.** And the TGI [26]?
**A.** 3.7 µM

**Q.** And the GI50 [27]?
**A.** 0.367 µM

**Q.** What about the TGI [27] of the same compound?
**A.** 2.37 µM

**Q.** What about the GI50 [28] of the same compound?
**A.** 2.74 µM

**Q.** And the TGI [28]?
**A.** 10.7 µM

**Q.** What about the GI50 [29] of the same compound?
**A.** 3.57 µM

**Q.** And the TGI [29]?
**A.** 16.5 µM

**Q.** And the GI50 [30]?
**A.** 3.7 µM

**Q.** What about the TGI [30] of the same compound?
**A.** 20.7 µM

**Q.** And the GI50 [31]?
**A.** 6.03 µM

**Q.** What about the TGI [31] of the same compound?
**A.** 21.2 µM

**Q.** And the GI50 [32]?
**A.** 2.62 µM

**Q.** What about the TGI [32] of the same compound?
**A.** 8.06 µM

**Q.** What about the GI50 [33] of the same compound?
**A.** 2.12 µM

**Q.** And the TGI [33]?
**A.** 4.49 µM

**Q.** And the GI50 [34]?
**A.** 1.61 µM

**Q.** And the TGI [34]?
**A.** 3.03 µM

**Q.** What about the GI50 [35] of the same compound?
**A.** 5.46 µM

**Q.** What about the TGI [35] of the same compound?
**A.** 59.7 µM

**Q.** What about the GI50 [36] of the same compound?
**A.** 2.31 µM

**Q.** What about the TGI [36] of the same compound?
**A.** 6.51 µM

**Q.** And the GI50 [37]?
**A.** 0.291 µM

**Q.** What about the TGI [37] of the same compound?
**A.** 2.23 µM

**Q.** And the GI50 [38]?
**A.** > 100 µM

**Q.** What about the TGI [38] of the same compound?
**A.** > 100 µM

**Q.** What about the GI50 [39] of the same compound?
**A.** 1.7 µM

**Q.** And the TGI [39]?
**A.** 3.27 µM

**Q.** What about the GI50 [40] of the same compound?
**A.** 7.2 µM

**Q.** And the TGI [40]?
**A.** 32.8 µM

**Q.** And the GI50 [41]?
**A.** 1.84 µM

**Q.** And the TGI [41]?
**A.** 4.63 µM

**Q.** And the GI50 [42]?
**A.** 40.2 µM

**Q.** What about the TGI [42] of the same compound?
**A.** > 100 µM

**Q.** And the GI50 [43]?
**A.** 1.74 µM

**Q.** And the TGI [43]?
**A.** 3.36 µM

**Q.** What about the GI50 [44] of the same compound?
**A.** 1.82 µM

**Q.** And the TGI [44]?
**A.** 3.42 µM

**Q.** What about the GI50 [45] of the same compound?
**A.** 11.6 µM

**Q.** What about the TGI [45] of the same compound?
**A.** > 100 µM

**Q.** What about the GI50 [46] of the same compound?
**A.** 1.49 µM

**Q.** And the TGI [46]?
**A.** 3.19 µM

**Q.** And the GI50 [47]?
**A.** 2.81 µM

**Q.** What about the TGI [47] of the same compound?
**A.** 7.43 µM

**Q.** What about the GI50 [48] of the same compound?
**A.** 1.55 µM

**Q.** And the TGI [48]?
**A.** 5.06 µM

**Q.** And the GI50 [49]?
**A.** 1.53 µM

**Q.** What about the TGI [49] of the same compound?
**A.** 3.01 µM

**Q.** And the GI50 [50]?
**A.** > 100 µM

**Q.** What about the TGI [50] of the same compound?
**A.** > 100 µM

**Q.** And the GI50 [51]?
**A.** 2.23 µM

**Q.** And the TGI [51]?
**A.** 6.08 µM

**Q.** And the GI50 [52]?
**A.** 70.3 µM

**Q.** What about the TGI [52] of the same compound?
**A.** > 100 µM

**Q.** What about the GI50 [53] of the same compound?
**A.** 1.89 µM

**Q.** What about the TGI [53] of the same compound?
**A.** 4.72 µM

**Q.** What about the GI50 [54] of the same compound?
**A.** 1.95 µM

**Q.** What about the TGI [54] of the same compound?
**A.** 5.03 µM

**Q.** And the GI50 [55]?
**A.** > 100 µM

**Q.** And the TGI [55]?
**A.** > 100 µM

**Q.** What about the GI50 [56] of the same compound?
**A.** 3.26 µM

**Q.** And the TGI [56]?
**A.** > 100 µM

**Q.** What about the GI50 [57] of the same compound?
**A.** > 100 µM

**Q.** And the TGI [57]?
**A.** > 100 µM

**Q.** And the GI50 [58]?
**A.** 2.06 µM

**Q.** And the TGI [58]?
**A.** 3.85 µM
